Literature values, collected in paper PMC10532012, “A Putative Role of Vasopressin/Oxytocin-Type Neuropeptide in Osmoregulation and Feeding Inhibition of Apostichopus japonicus” (International Journal of Molecular Sciences, 2023).
Entries after “also recorded” stand apart in the source; their conditions may differ. Where no end group is shown, it is not given here.

How the values were obtained:
rectum = tested on: rectum; set-up: method as in PMID 12972329
C. elegans = tested on: C. elegans
Procedure: (§1) Based on the genes/transcripts encoding VP/OT-type neuropeptide signaling identified from protostomian and deuterostomian animals, the physiological effects of VP/OT superfamily signaling were analyzed and compared. In protostomes, multiple physiological functions of VP/OT-type neuropeptides in different Phylum have been characterized.

mammals = tested on: mammals
Source text: The conservative functions of VP/OT-type neuropeptide in vertebrates have been extensively studied, mainly including water homeostasis, reproduction and social behavior [43, 44, 45]. However, few functional studies of VP/OT-type neuropeptide in deuterostomian invertebrates especially in echinoderms have been reported. Related physiological studies of echinoderm VP/OT-type neu ...

Lasius neglectus = conditions: inotocin signaling
Procedure: as §1

longitudinal muscle = conditions: 10^−7–10^−5 M; positive control
Procedure: To investigate the function of holotocin, longitudinal muscle, intestine and tentacle from A. japonicus were prepared. […] Firstly, the longitudinal muscle and intestine of A. japonicus were dissected and cut into strips approximately 20 mm in length. Then, these preparations were put into a 50 mL glass organ bath containing 2 ...

In the case of octopressin, the contraction of rectum (rectum) is listed as “tonic contraction”.

In the case of “Nematocin: VP/OT-type neuropeptide in nematode C. elegans (CFLNSCPYRRY; ends and bridges not checked; cysteine pairing not given here; UniProt Q4R128 20-30, looked up)”, the associative learning (C. elegans) is given as “neuro-modulatory role in associative learning”.

In the case of “CYFQNCPRG-NH2 (disulfide) [VP, neurohypophyseal hormone …-NH2]”, the antidiuretic activity (mammals) is listed as “had antidiuretic activity” and the blood pressure (mammals) is listed as “increased blood pressure”.

For inotocin, the energy regulation (Lasius neglectus) is given as “of vital importance in energy regulation”.

For “CYIQNCPLG-NH2 (disulfide) [OT, neurohypophyseal hormone …-NH2]”, the lactation (mammals) is given as “stimulated lactation” and the uterine contraction (mammals) is given as “caused the uterine contraction”.

In the case of “NGIWYamide [neuropeptide used as positive control for contraction of longitudinal muscles]”, the “contraction of longitudinal muscle, NGIWYamide” value (longitudinal muscle) is listed as “reported to cause contraction of longitudinal muscle preparations; also recorded: confirmed to cause contraction of longitudinal muscles”.
